Among the data in a melting point compilation (Tetko et al.; mined from patent text by program, amines drawn as free bases though some values may be those of a salt) are melting point values, retold here.

Broadly, the melting point is the temperature of the solid-liquid transition.

In turn, `COc1ccc(OC2COc3ccc(OC(C)c4ccc5ccccc5n4)cc3C2O)cc1` (configuration not stated) showed a melting point of 81 to 85 °C.
With `CC(Oc1ncnc2ccccc12)c1ccc(C(C)(C)C)cc1` (configuration not stated) the figure was 85 to 86 °C; with `CCOC(=O)CNc1nc(C)c(C(=O)OCC)c(NC(C)CC)c1[N+](=O)[O-]` (configuration not stated), 43 to 45 °C; with `O=S(=O)(F)c1ccc(OCc2ccccc2)nn1`, 85 to 86 °C.
Regarding `CC(C)C(=O)NC1CCc2c(c3cc(-c4ccccn4)ccc3n2Cc2cccc(F)c2)C1` (configuration not stated), the melting point was 228 to 230 °C.
The value for `Cc1nn(-c2ccc(C#N)c(Cl)c2)c(C)c1Cc1ccc(C(=O)NC(C)(C)C)cc1` was 135 to 136 °C; that for `NCc1cc(-c2ccc(C(F)(F)F)cc2)no1` was 59 °C; that for `CCCC(=O)n1nc2c(c1NC)c(=O)n(CCC)c(=O)n2Cc1ccccc1` was 138 to 139 °C.
The value for `NC(C(=O)CCC(=O)O)c1ccc(Nc2n[nH]c3ncnc(Nc4cccc(Cl)c4)c23)cc1` (configuration not stated) was 205 to 207 °C; that for `[N-]=[N+]=Nc1cc(OCCO)ncn1` was 49 to 50 °C.
`O=C1C=CC(=O)c2nccnc21` registered a melting point of 172 to 173 °C.
`Cc1ccc(S(=O)(=O)ON2C(=O)c3ccc(C(=O)Cl)cc3C2=O)cc1` had a melting point of 131 to 133 °C.
The compound `CCOc1cc2c(cc1OC)C(c1ccc(C(=O)N(C(C)C)C(C)C)cc1)=NC1CC[N+](C)([O-])CC21` (configuration not stated) displayed a melting point of 195 to 198 °C.
With `CCCN(C=Nc1ccc2nnc(-c3ncc([N+](=O)[O-])n3C)n2n1)CCC` the figure was 155 to 157 °C; with `CCOC(=O)C1CN(Cc2ccccc2)C(=O)C(=C2SC=CS2)C1=O` (configuration not stated), 127 to 129 °C.
With `O=C1COC(c2ccccc2)c2ccccc2N1` (configuration not stated) the figure was 193 to 195 °C.
The value for `C=CC(O)c1ccc([N+](=O)[O-])cc1` (configuration not stated) was 55 °C; that for `CC1CC(C)CN(C(=O)c2ccc(Cl)cc2)C1` (configuration not stated) was 114 to 115 °C; that for `Cn1c2nc3ccccc3nc2c2cccc(C=O)c21` was 220 °C.
Turning to `CCS(=O)(=O)N(C)C1CCCOc2c(C)cc(Cl)cc21` (configuration not stated), the melting point was in the range of 141 to 143 °C.
With `CC(C)c1cc(S(=O)(=O)c2ccc(N)cc2)cc(N2CCCC2)n1` the figure was 148 to 150 °C; with `CC(=O)NNc1ccc(N)cc1`, 130 to 140 °C.
The value for `CCCc1nc(C=O)c[nH]1` was 104 to 106 °C; that for `Cc1cc(NCc2ccccc2)c2c(c1)C(c1ccc(C(C)C)cc1)C(C)(C)O2` (configuration not stated) was 80 to 81 °C; that for `CCc1c(Sc2ccccc2)[nH]c(=O)[nH]c1=O` was 218 to 219 °C.
With `O=C(O)CCC12CCC(=O)N1C(=O)CC2` the figure was 179 to 181 °C; with `CCCNCC1Cc2ccc(-c3ccc(=O)[nH]n3)cc2C1` (configuration not stated), 144 to 146 °C.
`CN1CCC(=C2c3ccccc3COc3ccc(C(=O)O)cc32)CC1` showed a melting point of 205 to 210 °C.
Turning to `O=C1C(=O)c2ccccc2C2=C1SCC(CN1CCC(CO)CC1)O2` (configuration not stated), the melting point lay in the range of 200 to 202 °C.
The value for `Cc1nnc2nc(-c3ccccc3F)cnn12` was 227 to 229 °C.
With `NCc1ccc(N2CC(C(=O)O)OC2=O)cc1` (configuration not stated) the figure was 211 to 212 °C.
The value for `CN(C)Cc1nc(-c2ncn3c2CN(C)C(=O)c2c(Cl)cccc2-3)no1` was 152 to 153 °C; that for `CC(C)CC(NC(=O)C(Cc1c[nH]cn1)NC(=O)C(CC(=O)N1CCCCC1)Cc1cccc2ccccc12)C(O)C(=O)OC(C)C` (mixture of isomers) was 91 to 97 °C; that for `COC(=O)C=CC(C)Oc1ccc(OCc2ccccc2)cc1` (configuration not stated) was 80 to 89 °C.
On to `Cc1cc([N+](=O)[O-])ccc1N=C1SC(=O)CN1CC(C)C`, for which the melting point was found to be 152 °C.
The value for `O=C1c2ccccc2CCc2cc(Br)ccc21` was 94 to 96 °C.
With `[N-]=[N+]=NCc1cc(=O)c(OCc2ccccc2)cn1Cc1ccccc1` the figure was 120 °C; with `O=C(NC1N=C(c2ccccc2F)c2ccccc2NC1=O)c1ccc(C(F)(F)F)cc1` (racemic), 209 to 211 °C.
With `Cc1ccc2ccc(N3C(=O)c4ccccc4C3CC(=O)CCC(C)C)nc2n1` (configuration not stated) the figure was 155 °C; with `N#CN=[N+]([O-])c1ccc2c(c1)OCO2`, 145 to 147 °C; with `CC(=O)Oc1ccccc1-c1ccc(Cl)nn1`, 131 to 134 °C.
In turn, `C(=C\c1ncno1)/c1ccccc1` registered a melting point of 53 to 55 °C.
As to `CCc1nc2c(C)cc(C)nc2n1Cc1ccc(C(c2ccccc2)C(C)C(=O)NS(C)(=O)=O)cc1` (configuration not stated), the melting point was in the range of 117 to 120 °C.
The value for `CSc1ccc(-c2nn(Cc3ccc(Cl)cc3Cl)c(=S)cc2-c2ccc(F)cc2)cc1` was 154 °C; that for `CCCCCCCCCNC(=O)CCC(=O)OO` was 85 to 91 °C.
With `CCCCCCCCCCCCCCc1ccc(C(=O)O)[nH]1` the figure was 68 to 69 °C; with `Cc1cc(Br)cnc1CCCCNc1ncc(Cc2ccn(C)c(=O)c2)c(=O)[nH]1`, 203 to 204 °C.
`Cn1ncc(C(=O)NN)c1S(N)(=O)=O` registered a melting point of 172 to 173 °C.
With `CC(=O)N1CCc2ccc(C(=O)c3ccccc3)cc2C1` the figure was 110 to 113 °C; with `CCCCc1ncc(C(=O)OCC)c(NCc2ccc(-c3ccccc3-c3nnn[nH]3)cc2)n1`, 153 to 155 °C; with `O=C1CCC2=C(CCc3c(Cl)cccc32)N1`, 252 to 253 °C.
The value for `NC(=O)c1sccc1S` was 116 to 120 °C; that for `CCNc1c(OC)cc(C(=O)CS(C)(=O)=O)cc1OC` was 129 to 130 °C.
The value for `CN(C)CC(=O)Nc1cccc2nc(N[C@@H]3CCc4ccccc43)ccc12` was 153 °C; that for `CCCCCCCCCCCCCCCCCCOCCC(=O)COCc1ccccc1` was 33 to 34 °C.
On to `CC(=O)CCc1cc(OC(C)=O)c(C(C)(C)C)cc1OC(C)=O`, for which the melting point lay in the range of 66.5 to 68 °C.
With `CCOC(=O)CN(CP(=O)(ONN(C)C)ONN(C)C)C(=O)C(F)(F)F` the figure was 84.5 to 87.5 °C.
`CCOC(=O)c1nc2c(C)nn(CC)c2nc1OCC` registered a melting point of 81 to 82 °C.
For the compound `C1=CCC2=C(C1)CC1=C(CC=CC1)C2`, the melting point fell in the range of 146 to 147 °C.
With `Cc1cc(-c2cc(C(F)F)n3ncc(C(=O)Nc4cccc(S(C)(=O)=O)c4)c3n2)ccc1C(F)(F)F` the figure was 261 °C; with `CCCn1c(=O)c2c(nc(C=Cc3ccc(C(=O)O)cc3)n2C)n(CCC)c1=O`, 215 to 217 °C; with `Cc1cc(-c2ccccc2)nn1CCN`, 131 to 132 °C.
With `O=C1N(Cc2ccc(C(F)(F)F)nc2)c2ccccc2C12COc1cc3c(cc12)OCCO3` (configuration not stated) the figure was 204 to 207 °C; with `COc1ccc(CN2C(=O)C(C)(c3cc(C(=O)N4CCCCC4C(=O)N(C)CC(F)(F)F)ccc3Cl)c3cc(Cl)ccc32)c(OC)c1` (configuration not stated), 99 °C.
The value for `O=[N+]([O-])c1cccc(C=NC2CCOc3ccccc32)c1` (configuration not stated) was 117 to 118 °C; that for `Cc1ccc(-c2ccc3c(c2)C=C(C(=O)N[C@H]2CC[C@H](CN(C)C4CCN(C(=O)OC(C)(C)C)CC4)CC2)CCO3)cc1` was 146 to 150 °C; that for `O=C(Cn1c(-c2ccc(Cl)cc2)nc2cccnc21)N1CCC1` was 196 to 197 °C.
Compound `O=c1oc2ccccc2n1CCCCl` came in with a melting point of 62 to 64 °C.
The value for `CC(=O)OCCCn1c(NC(=O)c2cccs2)nc2cc(C(=O)N(C)C3CCCCC3)ccc21` was 74 to 76 °C.
Regarding `Nc1cccc(-c2ccc(CCN3CCN(c4cccc(C(F)(F)F)c4)CC3)cc2)n1`, the melting point lay within 189 to 191 °C.
With `O=C1c2cc(F)cc(F)c2OC[C@H]1NC(=O)C(F)(F)F` the figure was 167 to 168 °C; with `CC(C)/[N+]([O-])=C/c1ccc(O)cc1`, 217 to 218 °C.
The value for `CC(C)C(=O)N=c1ccn(-c2ccccc2)nc1` was 138 °C.
For `COc1cnc(C(O)Cc2c(Cl)cncc2Cl)cc1OC1CCCC1` (configuration not stated), the melting point fell in the range of 110 to 112 °C.
With `C[C@@H](O)[C@H]1C(=O)N(CC(=O)OC(C)(C)C)[C@@H]1C(=O)OC(C)(C)C` the figure was 79 to 81 °C; with `COc1cc(N)cc(C#N)c1`, 81 to 85 °C; with `COCc1nnc(N2N=C(c3ccc([N+](=O)[O-])c(Cl)c3)c3cc4c(cc3C[C@H]2C)OCO4)s1`, 208 to 210 °C.
The value for `CC(C)CCCC(C)C1CCC2C3CC=C4CC(Br)CCC4(C)C3CCC12C` (configuration not stated) was 99.5 to 100 °C; that for `Oc1ccc(SCc2cc(O)c(O)c(O)c2)cc1` was 158 °C; that for `CC1(C)C=C(c2ccccc2)c2ccccc2N1` was 79.5 to 81 °C.
`O=C(O)Cc1cc(Br)c(S(=O)(=O)c2ccc(O)c(C3CCCC3)c2)c(Br)c1` showed a melting point of 171 to 174 °C.
With `COc1cc(C(=O)C#CCOCC=C(C)C)cc(OC)c1OC` the figure was 32 °C.
For `O=C(NCN1CCOCC1)c1cn(-c2ccc(F)cc2)c2cc(-c3ccncc3)ccc2c1=O`, the melting point was in the range of 258 to 260 °C.
With `Cc1c(C)c(-c2cccc(CO)c2)c(C)c(C)c1OCCCS(C)(=O)=O` the figure was 132 to 134 °C; with `CN(C)C(=O)n1nc(C(C)(C)C)nc1SC(NS(C)(=O)=O)NS(C)(=O)=O`, 83 to 85 °C; with `CCC(=NO)c1ccccc1O`, 88 to 90 °C.
With `CC(C)Oc1ccccc1NC(=O)Nc1ccc2cnccc2n1` the figure was 78 to 80 °C.
The value for `COc1ccc(C(=O)CC(O)C(=O)O)cc1OC` (configuration not stated) was 106 to 108 °C; that for `CCOC(=O)CNC(=O)CC(=O)CCl` was 96 to 97 °C; that for `CCOc1csc2c(=O)c(SC)cn(C)c12` was 214 to 217 °C.
Take `Cc1ccccc1N1CCc2c(C)nc3c(O)cccc3c21`: the melting point lay within 144 to 146 °C.
With `C#CCc1c(C)nc(C)nc1NCc1ccc(-c2ccccc2-c2nnn[nH]2)cc1` the figure was 205 to 206 °C.
